Experimental data reported in US10538555B2, “Macrocyclic inhibitors of the PD-1/PD-L1 and CD80(B7-1)/PD-L1 protein/protein interactions” (BRISTOL-MYERS SQUIBB COMPANY, priority 2014, dated 2020).
Where a SMILES comes first, the peptide text is derived from it. Bridges are numbered along the chain shown (N, C = ends). [ ]: non-standard residue; d: D form. ξ: configuration not given here. Morpholine(3S-CO) = O=C(O)[C@@H]1COCCN1; Hyp = O=C(O)[C@@H]1C[C@@H](O)CN1; NMeNle = CCCC[C@H](NC)C(=O)O; Pip = O=C(O)[C@@H]1CCCCN1; Orn = NCCC[C@H](N)C(=O)O; Dab = NCC[C@H](N)C(=O)O; Dap = NC[C@H](N)C(=O)O; ξPip = O=C(O)C1CCCCN1

Target: T1, Human PD-L1/PD-1 (Homo sapiens, UniProt Q9NZQ7)
T1 construct: TVMV protease cleavage site (C); made in house; host or cells: HEK293T cells
Test: HTRF Human PD-L1/PD-1 binding assay (PD-1-Ig/PD-L1-His)
Conditions: PD-L1-His 10 nM, PD-1-Ig 20 nM; class symbol; read-out: HTRF Human PD-L1/PD-1 Binding Assay IC50 Range
How it was run: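 HTRF read-out (665/620 nm ratio) after 30 min equilibration with Eu-cryptate anti-Ig mAb (1 nM) and APC anti-His mAb (20 nM). Peptides preincubated 15 min with PD-L1-His (10 nM), then PD-1-Ig (20 nM) added for 15 min.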

T1 sequence (Q9NZQ7 with tags, fused parts or gaps): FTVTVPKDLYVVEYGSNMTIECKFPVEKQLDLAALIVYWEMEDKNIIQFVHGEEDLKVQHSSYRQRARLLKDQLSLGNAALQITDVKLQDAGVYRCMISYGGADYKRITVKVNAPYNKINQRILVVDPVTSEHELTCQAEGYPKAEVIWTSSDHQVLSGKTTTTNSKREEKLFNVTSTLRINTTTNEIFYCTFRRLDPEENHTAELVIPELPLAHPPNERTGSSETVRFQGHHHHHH

SMILES | IC50
CCCC[C@H]1C(=O)N(C)[C@@H](CCCC)C(=O)N[C@@H](CCC(=O)O)C(=O)N[C@H](C(=O)NCC(N)=O)CSCC(=O)N[C@@H](Cc2ccc(O)cc2)C(=O)N2CCOC[C@H]2C(=O)N[C@@H](CC(=O)O)C(=O)N2CCC[C@H]2C(=O)N[C@@H](Cc2c[nH]cn2)C(=O)N[C@@H](CCC(N)=O)C(=O)N2C[C@H](O)C[C@H]2C(=O)N[C@@H](Cc2c[nH]c3ccccc23)C(=O)N[C@@H](CO)C(=O)N[C@@H](Cc2c[nH]c3ccccc23)C(=O)N1C [Example 1515] ({CH2CO}-Y[Morpholine(3S-CO)]DPHQ[Hyp]WSW[NMeNle][NMeNle]ECG-NH2; thioether N-14) | 1 to 9.9 nM
CCCC[C@H]1C(=O)N(C)[C@@H](CCCC)C(=O)N[C@@H](CN)C(=O)N[C@H](C(=O)NCC(N)=O)CSCC(=O)N[C@@H](Cc2ccc(O)cc2)C(=O)N2CCCC[C@H]2C(=O)N[C@@H](CC(N)=O)C(=O)N2CCC[C@H]2C(=O)N[C@@H](CN)C(=O)N[C@@H](CCC(=O)O)C(=O)N2C[C@H](O)C[C@H]2C(=O)N[C@@H](Cc2c[nH]c3ccccc23)C(=O)N[C@@H](CCN)C(=O)N[C@@H](Cc2c[nH]c3ccccc23)C(=O)N1C [Example 1519] ({CH2CO}-Y[Pip]NP[Dap]E[Hyp]W[Dab]W[NMeNle][NMeNle][Dap]CG-NH2; thioether N-14) | 1 to 9.9 nM
CCCC[C@H]1C(=O)N(C)[C@@H](CCCC)C(=O)N[C@@H](CCC(=O)O)C(=O)N[C@H](C(=O)NCC(N)=O)CSCC(=O)N[C@@H](Cc2ccc(O)cc2)C(=O)N2CCOC[C@H]2C(=O)N[C@@H](CC(=O)O)C(=O)N2CCC[C@H]2C(=O)N[C@@H](CN)C(=O)N[C@@H](CCC(=O)O)C(=O)N2C[C@H](O)C[C@H]2C(=O)N[C@@H](Cc2c[nH]c3ccccc23)C(=O)N[C@@H](CO)C(=O)N[C@@H](Cc2c[nH]c3ccccc23)C(=O)N1C [Example 1520] ({CH2CO}-Y[Morpholine(3S-CO)]DP[Dap]E[Hyp]WSW[NMeNle][NMeNle]ECG-NH2; thioether N-14) | 1 to 9.9 nM
CCCC[C@H]1C(=O)N(C)[C@@H](CCCC)C(=O)N[C@@H](CCC(=O)O)C(=O)N[C@H](C(=O)NCC(N)=O)CSCC(=O)N[C@@H](Cc2ccc(O)cc2)C(=O)N2CCCC[C@H]2C(=O)N[C@@H](CC(=O)O)C(=O)N2CCC[C@H]2C(=O)N[C@@H](CN)C(=O)N[C@@H](CCC(=O)O)C(=O)N2C[C@H](O)C[C@H]2C(=O)N[C@@H](Cc2c[nH]c3ccccc23)C(=O)N[C@@H](CO)C(=O)N[C@@H](Cc2c[nH]c3ccccc23)C(=O)N1C [Example 1521] ({CH2CO}-Y[Pip]DP[Dap]E[Hyp]WSW[NMeNle][NMeNle]ECG-NH2; thioether N-14) | 1 to 9.9 nM
CCCC[C@H]1C(=O)N(C)[C@@H](CCCC)C(=O)N[C@@H](C)C(=O)N[C@H](C(=O)NCC(N)=O)CSCC(=O)N[C@@H](Cc2ccc(O)cc2)C(=O)N2CCOC[C@H]2C(=O)N[C@@H](CC(=O)O)C(=O)N2CCC[C@H]2C(=O)N[C@@H](CN)C(=O)N[C@@H](CC(C)C)C(=O)N2C[C@H](O)C[C@H]2C(=O)N[C@@H](Cc2c[nH]c3ccccc23)C(=O)N[C@@H](CO)C(=O)N[C@@H](Cc2c[nH]c3ccccc23)C(=O)N1C [Example 1522] ({CH2CO}-Y[Morpholine(3S-CO)]DP[Dap]L[Hyp]WSW[NMeNle][NMeNle]ACG-NH2; thioether N-14) | 10 to 99.9 nM
CCCC[C@H]1C(=O)N(C)[C@@H](CCCC)C(=O)N[C@@H](C)C(=O)N[C@H](C(=O)NCC(N)=O)CSCC(=O)N[C@@H](Cc2ccc(O)cc2)C(=O)N2CCCC[C@H]2C(=O)N[C@@H](CC(=O)O)C(=O)N2CCC[C@H]2C(=O)N[C@@H](CN)C(=O)N[C@@H](CC(C)C)C(=O)N2C[C@H](O)C[C@H]2C(=O)N[C@@H](Cc2c[nH]c3ccccc23)C(=O)N[C@@H](CO)C(=O)N[C@@H](Cc2c[nH]c3ccccc23)C(=O)N1C [Example 1523] ({CH2CO}-Y[Pip]DP[Dap]L[Hyp]WSW[NMeNle][NMeNle]ACG-NH2; thioether N-14) | 1 to 9.9 nM
CCCC[C@H]1C(=O)N(C)[C@@H](CCCC)C(=O)N[C@@H](CCC(=O)O)C(=O)N[C@H](C(=O)NCC(N)=O)CSCC(=O)N[C@@H](Cc2ccc(O)cc2)C(=O)N2CCCC[C@H]2C(=O)N[C@@H](CC(N)=O)C(=O)N2CCC[C@H]2C(=O)N[C@@H](CN)C(=O)N[C@@H](CCC(=O)O)C(=O)N2C[C@H](O)C[C@H]2C(=O)N[C@@H](Cc2c[nH]c3ccccc23)C(=O)N[C@@H](CCN)C(=O)N[C@@H](Cc2c[nH]c3ccccc23)C(=O)N1C [Example 1526] ({CH2CO}-Y[Pip]NP[Dap]E[Hyp]W[Dab]W[NMeNle][NMeNle]ECG-NH2; thioether N-14) | 1 to 9.9 nM
CCCC[C@H]1C(=O)N(C)[C@@H](CCCC)C(=O)N[C@@H](CCCN)C(=O)N[C@H](C(=O)NCC(N)=O)CSCC(=O)N[C@@H](Cc2ccc(O)cc2)C(=O)N2CCCCC2C(=O)N[C@@H](CC(=O)O)C(=O)N2CCC[C@H]2C(=O)N[C@@H](CN)C(=O)N[C@@H](CCC(=O)O)C(=O)N2C[C@H](O)C[C@H]2C(=O)N[C@@H](Cc2c[nH]c3ccccc23)C(=O)N[C@@H](CCN)C(=O)N[C@@H](Cc2c[nH]c3ccccc23)C(=O)N1C (stereo partly shown) [Example 1528] ({CH2CO}-Y[ξPip]DP[Dap]E[Hyp]W[Dab]W[NMeNle][NMeNle][Orn]CG-NH2; thioether N-14) | 10 to 99.9 nM
CCCC[C@H]1C(=O)N(C)[C@@H](CCCC)C(=O)N[C@@H](CCCN)C(=O)N[C@H](C(=O)NCC(N)=O)CSCC(=O)N[C@@H](Cc2ccc(O)cc2)C(=O)N2CCCCC2C(=O)N[C@@H](CC(=O)O)C(=O)N2CCC[C@H]2C(=O)N[C@@H](CN)C(=O)N[C@@H](CCC(=O)O)C(=O)N2C[C@H](O)C[C@H]2C(=O)N[C@@H](Cc2c[nH]c3ccccc23)C(=O)N[C@@H](CO)C(=O)N[C@@H](Cc2c[nH]c3ccccc23)C(=O)N1C (stereo partly shown) [Example 1530] ({CH2CO}-Y[ξPip]DP[Dap]E[Hyp]WSW[NMeNle][NMeNle][Orn]CG-NH2; thioether N-14) | 10 to 99.9 nM
CCCC[C@H]1C(=O)N(C)[C@@H](CCCC)C(=O)N[C@@H](CC(=O)O)C(=O)N[C@H](C(=O)NCC(N)=O)CSCC(=O)N[C@@H](Cc2ccc(O)cc2)C(=O)N2CCCCC2C(=O)N[C@@H](CC(=O)O)C(=O)N2CCC[C@H]2C(=O)N[C@@H](Cc2c[nH]cn2)C(=O)N[C@@H](CCCN)C(=O)N2C[C@H](O)C[C@H]2C(=O)N[C@@H](Cc2c[nH]c3ccccc23)C(=O)N[C@@H](CCCN)C(=O)N[C@@H](Cc2csc3ccccc23)C(=O)N1C (stereo partly shown) [Example 1533] | 1 to 9.9 nM

Results, then the compound that gave them:

IC50 | SMILES
1 to 9.9 nM | CCCC[C@H]1C(=O)N(C)[C@@H](CCCC)C(=O)N[C@@H](C)C(=O)N[C@H](C(=O)NCC(N)=O)CSCC(=O)N[C@@H](Cc2ccc(O)cc2)C(=O)N2CCOC[C@H]2C(=O)N[C@@H](CC(=O)O)C(=O)N2CCC[C@H]2C(=O)N[C@@H](Cc2c[nH]cn2)C(=O)N[C@@H](CC(C)C)C(=O)N2C[C@H](O)C[C@H]2C(=O)N[C@@H](Cc2c[nH]c3ccccc23)C(=O)N[C@@H](CO)C(=O)N[C@@H](Cc2c[nH]c3ccccc23)C(=O)N1C [Example 1525]
1 to 9.9 nM | CCCC[C@H]1C(=O)N(C)[C@@H](CCCC)C(=O)N[C@@H](C)C(=O)N[C@H](C(=O)NCC(N)=O)CSCC(=O)N[C@@H](Cc2ccc(O)cc2)C(=O)N2CCNC[C@H]2C(=O)N[C@@H](CC(N)=O)C(=O)N2CCC[C@H]2C(=O)N[C@@H](Cc2c[nH]cn2)C(=O)N[C@@H](CC(C)C)C(=O)N2C[C@H](O)C[C@H]2C(=O)N[C@@H](Cc2c[nH]c3ccccc23)C(=O)N[C@@H](CO)C(=O)N[C@@H](Cc2c[nH]c3ccccc23)C(=O)N1C [Example 1529]
10 to 99.9 nM | CCCC[C@H]1C(=O)N(C)[C@@H](CCCC)C(=O)N[C@@H](CCCN)C(=O)N[C@H](C(=O)NCC(N)=O)CSCC(=O)N[C@@H](Cc2ccc(O)cc2)C(=O)N2CCCCC2C(=O)N[C@@H](CC(=O)O)C(=O)N2CCC[C@H]2C(=O)N[C@@H](Cc2c[nH]cn2)C(=O)N[C@@H](CCC(=O)O)C(=O)N2C[C@H](O)C[C@H]2C(=O)N[C@@H](Cc2c[nH]c3ccccc23)C(=O)N[C@@H](CCN)C(=O)N[C@@H](Cc2c[nH]c3ccccc23)C(=O)N1C (stereo partly shown) [Example 1531] ({CH2CO}-Y[ξPip]DPHE[Hyp]W[Dab]W[NMeNle][NMeNle][Orn]CG-NH2; thioether N-14)
1 to 9.9 nM | CCCC[C@H]1C(=O)N(C)[C@@H](CCCC)C(=O)N[C@@H](CCCN)C(=O)N[C@H](C(=O)NCC(N)=O)CSCC(=O)N[C@@H](Cc2ccc(O)cc2)C(=O)N2CCOCC2C(=O)N[C@@H](CC(N)=O)C(=O)N2CCC[C@H]2C(=O)N[C@@H](Cc2c[nH]cn2)C(=O)N[C@@H](CC(C)C)C(=O)N2C[C@H](O)C[C@H]2C(=O)N[C@@H](Cc2c[nH]c3ccccc23)C(=O)N[C@@H](CO)C(=O)N[C@@H](Cc2c[nH]c3ccccc23)C(=O)N1C (stereo partly shown) [Example 1532]
10 to 99.9 nM | CCCC[C@H]1C(=O)N(C)[C@@H](CCCC)C(=O)N[C@@H](CCCN)C(=O)N[C@H](C(=O)NCC(N)=O)CSCC(=O)N[C@@H](Cc2ccc(O)cc2)C(=O)N2CCNC[C@H]2C(=O)N[C@@H](CC(N)=O)C(=O)N2CCC[C@H]2C(=O)N[C@@H](Cc2c[nH]cn2)C(=O)N[C@@H](CC(C)C)C(=O)N2C[C@H](O)C[C@H]2C(=O)N[C@@H](Cc2c[nH]c3ccccc23)C(=O)N[C@@H](CO)C(=O)N[C@@H](Cc2c[nH]c3ccccc23)C(=O)N1C [Example 1535]

Same assay, conditions: PD-L1-His 10 nM, PD-1-Ig 20 nM; read-out: HTRF Human PD-L1/PD-1 Binding Assay IC50

IC50 | SMILES
1000 nM | CC(C)C[C@@H]1NC(=O)[C@H](Cc2c[nH]cn2)NC(=O)[C@@H]2CCCN2C(=O)[C@H](CC(N)=O)NC(=O)[C@H](C)N(C)C(=O)[C@H](Cc2ccc(O)cc2)NC(=O)CSC[C@@H](C(=O)NCC(N)=O)NC(=O)[C@H](C)NC(=O)[C@H](CC(=O)O)N(C)C(=O)[C@H](CCCCN)N(C)C(=O)[C@H](Cc2c[nH]c3ccccc23)NC(=O)[C@H](CO)NC(=O)[C@H](Cc2c[nH]c3ccccc23)NC(=O)[C@@H]2C[C@@H](O)CN2C1=O [Example 1534]
